Values after ≈ are worked out from the molar mass of the structure shown. Active and inactive are the calls of the source. The rule behind the calls is not given here.
How the values were obtained:
[1] = target: T1, Tubulin (Homo sapiens) (UniProt P68371+Q9H4B7+P0DPH7+P68366+Q13509+Q71U36+P04350+Q3ZCM7+P07437+P68363+Q9BQE3+Q6PEY2+Q13885+Q9BVA1+Q9BUF5); assay: Induction of microtubule organization changes in human Hela cells assessed as decrease in spindle length at GI50 concentration incubated for 4 hrs by inverted microscopy; assay type: cell-based
[2] = system: HeLa; assay: Induction of apoptosis in human HeLa cells assessed as total number of cells died at 20 uM measured upto 30 hrs by Annexin V labelling method relative to control; assay type: functional
[3] = system: HeLa; assay: Antiproliferative activity against human HeLa cells assessed as reduction in cell viability incubated for 48 hrs by MTT assay; assay type: functional
[4] = target: T1, Tubulin (Homo sapiens); assay: Inhibition of microtubule (unknown origin) polymerization at 25 uM by fluorescence- based assay relative to control; assay type: protein-complex assay
[5] = Solubility of the compound by laser nephelometry; assay type: physicochemical
[6] = Therapeutic index, ratio of GI50 for human PNT1A cells to GI50 for human HeLa cells; assay type: toxicity; settings: PNT1A cells and HeLa cells, read-out: TI
[7] = system: HeLa; assay: Antimitotic effect in human HeLa cells expressing EGFP-tubulin assessed as chromosome congression defect by measuring progressing through mitosis to prolonged pro-metaphase arrest at 7.5 nM incubated for 4 hrs by immunolabelling based live-cell imaging/inverted microscopy; assay type: functional
[8] = system: HeLa; assay: Antimitotic effect in human HeLa cells expressing EGFP-tubulin assessed as chromosome congression defect by measuring correcting the syntelic attachment at 7.5 nM incubated for 4 hrs by live-cell imaging/inverted microscopy; assay type: functional, cell-based
[9] = system: HeLa; assay: Antimitotic effect in human HeLa cells expressing EGFP-tubulin assessed as chromosome congression defect by measuring mitotic exit/cell death at 7.5 nM incubated for 4 hrs by immunolabelling based live-cell imaging/inverted microscopy; assay type: functional

| inhibition [4] [%] | Compound | Activity [1] | solubility kinetic [5] [µM] | selectivity ratio [6] | also measured |
| --- | --- | --- | --- | --- | --- |
| 100 | C#CCCCc1nc(=O)c2c(-c3ccccc3)c(C(=O)c3ccc(OCCN4CCOCC4)cc3)[nH]c2[nH]1 | Active | – | – | solubility [5]: Soluble |
| 100 | C#CCCCc1nc(=O)c2c(-c3ccccc3)c(C(=O)c3ccc(OCCOCC)cc3)[nH]c2[nH]1 | Active | 14 (≈ 6.57 µg/mL) | 2 | Activity [7]: Active; Activity [8]: Active; Activity [9]: Active |

Further lines, the molecule ahead of its results:

| Compound | inhibition [4] [%] | Activity [1] | solubility kinetic [5] [µM] | selectivity ratio [6] | also measured |
| --- | --- | --- | --- | --- | --- |
| C#CCCCc1nc(=O)c2c(-c3cccc(F)c3)c(C(=O)c3ccc(OCCOCC)cc3)[nH]c2[nH]1 | 100 | Active | 14 (≈ 6.83 µg/mL) | 2 | Activity [2]: 87%; GI50 [3]: 16 nM |
| C#CCCCc1nc(=O)c2c(-c3ccccc3)c(C(=O)c3ccccc3)[nH]c2[nH]1 | 100 | – | – | – | – |
| C#CCCCc1nc(=O)c2c(-c3cc(F)cc(F)c3)c(C(=O)c3ccc(OCCOCC)cc3)[nH]c2[nH]1 | – | Active | 14 (≈ 7.08 µg/mL) | – | Activity [2]: 85% |
| C#CCCCc1nc(=O)c2c(-c3ccccc3)c(C(=O)c3ccc(OCCN4CCCC4)cc3)[nH]c2[nH]1 | – | – | – | – | solubility [5]: Soluble |
| C#CCCCc1nc(=O)c2c(-c3ccccc3)c(C(=O)c3ccc(N4CCOCC4)cc3)[nH]c2[nH]1 | – | – | – | 2 | – |
| C#CCCCc1nc(=O)c2c(-c3cccc(Br)n3)c(C(=O)c3ccc(OCCOCC)cc3)[nH]c2[nH]1 | – | – | – | – | GI50 [3]: 22.4 nM |

Source: ChEMBL document CHEMBL5512693, “Improved Rigidin-Inspired Antiproliferative Agents with Modifications on the 7-Deazahypoxanthine C7/C8 Ring Systems” (J Med Chem, 2024)
